From the supplement of paper PMC10307832

Assays:
Test in all cases: relative viability (nuclei count vs DMSO), 5 days (fraction); higher = more cells survive
[1] = compound: CCN(CCO)CCCC(C)Nc1ccnc2cc(Cl)ccc12 [Hydroxychloroquine] + N=C(N)NC(=N)NCCc1ccccc1 [Phenformin] (partner 250 µM)
Summary of the method: (§1)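 Dosing by pin tool came one day after lung cancer cell lines were seeded in 1536-well plates, using either one drug or a fixed anchor-drug dose plus five library-drug doses (not always all listed) in √10 steps. After 5 days, nuclei were counted on 4× images. Relative viability is treated-well nuclei count divided by vehicle-well nuclei count, and values are medians of duplicate plates.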

[2] = compound: CCN(CCO)CCCC(C)Nc1ccnc2cc(Cl)ccc12 [Hydroxychloroquine] + O=C(c1cc(Cc2n[nH]c(=O)c3ccccc23)ccc1F)N1CCN(C(=O)C2CC2)CC1 [Olaparib] (partner 8 µM)
Summary of the method: as §1

[3] = compound: CCN(CCO)CCCC(C)Nc1ccnc2cc(Cl)ccc12 [Hydroxychloroquine] + CC(=O)Nc1cccc(-n2c(=O)n(C3CC3)c(=O)c3c(Nc4ccc(I)cc4F)n(C)c(=O)c(C)c32)c1 [Trametinib] (partner 0.02 µM)
Summary of the method: as §1

Hydroxychloroquine = compound: CCN(CCO)CCCC(C)Nc1ccnc2cc(Cl)ccc12 [Hydroxychloroquine]
Summary of the method: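 After an overnight hold at 37 °C, lung cancer cell lines in 1536-well plates were pinned with five library-drug doses (not always all listed), each √10 from the next, on vehicle-anchored plates. The cells stayed 5 days without fresh medium, then a one-step fix, permeabilisation and Hoechst stain preceded 4× imaging and MetaXpress nuclear counts. A plate passed only with control CV under 25% and at least one doubling. Viability is the median, over plates, of treated-well nuclei relative to vehicle-well nuclei.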

| Cell Line | relative viability ([1]; first compound 0.5 µM) | relative viability ([1]; first compound 1.581 µM) | relative viability ([1]; first compound 5 µM) | relative viability ([1]; first compound 15.81 µM) | relative viability ([1]; first compound 50 µM) | relative viability ([2]; first compound 0.5 µM) | relative viability ([2]; first compound 1.581 µM) | relative viability ([2]; first compound 5 µM) | relative viability ([2]; first compound 15.81 µM) | relative viability ([2]; first compound 50 µM) | relative viability ([3]; first compound 0.5 µM) | relative viability ([3]; first compound 1.581 µM) | relative viability ([3]; first compound 5 µM) | relative viability ([3]; first compound 15.81 µM) | relative viability ([3]; first compound 50 µM) | relative viability (Hydroxychloroquine; 0.5 µM) | relative viability (Hydroxychloroquine; 1.581 µM) | relative viability (Hydroxychloroquine; 5 µM) | relative viability (Hydroxychloroquine; 15.81 µM) | relative viability (Hydroxychloroquine; 50 µM) |
| --- | --- | --- | --- | --- | --- | --- | --- | --- | --- | --- | --- | --- | --- | --- | --- | --- | --- | --- | --- | --- |
| NCI-H1437 | 0.304 | 0.316 | 0.31 | 0.297 | 0.31 | 0.604 | 0.665 | 0.65 | 0.653 | 0.652 | 0.543 | 0.579 | 0.515 | 0.459 | 0.544 | 0.994 | 1 | 0.926 | 0.997 | 1.04 |
| NCI-H2085 | 0.762 | 0.509 | 0.688 | 0.727 | 0.692 | 0.74 | 0.769 | 0.817 | 0.739 | 0.774 | 0.7 | 0.527 | 0.619 | 0.518 | 0.53 | 1 | 0.859 | 0.964 | 0.977 | 0.989 |
| H3255 | 0.332 | 0.368 | 0.326 | 0.356 | 0.313 | 0.592 | 0.562 | 0.544 | 0.582 | 0.55 | 0.695 | 0.614 | 0.546 | 0.854 | 0.665 | 0.982 | 0.946 | 0.974 | 0.951 | 0.951 |
| NCI-H661 | 0.275 | 0.259 | 0.3 | 0.243 | 0.254 | 0.782 | 0.695 | 0.743 | 0.684 | 0.69 | 0.549 | 0.522 | 0.593 | 0.596 | 0.577 | 0.966 | 0.93 | 0.921 | 0.976 | 0.994 |
| LCLC-103H | 0.347 | 0.33 | 0.341 | 0.335 | 0.346 | 0.754 | 0.688 | 0.84 | 0.766 | 0.78 | 0.684 | 0.642 | 0.678 | 0.719 | 0.695 | 1.01 | 0.932 | 0.998 | 1 | 1.01 |
| LOU-NH91 | 0.704 | 0.562 | 0.679 | 0.732 | 0.466 | 0.945 | 0.846 | 0.888 | 0.869 | 0.961 | 0.795 | 0.69 | 0.799 | 0.828 | 0.848 | 0.96 | 0.794 | 0.944 | 0.95 | 0.901 |
| NCI-H1650 | 0.473 | 0.507 | 0.404 | 0.402 | 0.303 | 0.804 | 0.781 | 0.788 | 0.881 | 0.917 | 0.556 | 0.681 | 0.515 | 0.591 | 0.494 | 0.956 | 1.08 | 0.857 | 0.806 | 0.903 |
| NCI-H3122 | 0.379 | 0.364 | 0.373 | 0.358 | 0.344 | 0.623 | 0.646 | 0.676 | 0.664 | 0.729 | 0.19 | 0.215 | 0.2 | 0.319 | 0.232 | 0.999 | 0.997 | 0.99 | 1.05 | 1.06 |
| RERF-LC-KJ | 0.4 | 0.402 | 0.406 | 0.402 | 0.408 | 0.917 | 0.948 | 0.896 | 0.846 | 0.933 | 0.858 | 0.826 | 0.825 | 0.83 | 0.886 | 0.937 | 0.978 | 0.99 | 0.939 | 1.05 |
| NCI-H1651 | 0.358 | 0.346 | 0.297 | 0.356 | 0.325 | 0.178 | 0.193 | 0.191 | 0.18 | 0.197 | 0.832 | 0.894 | 0.834 | 0.864 | 0.879 | 0.974 | 0.981 | 1 | 1.01 | 1.1 |
| NCI-H2087 | 0.445 | 0.383 | 0.486 | 0.566 | 0.464 | 0.596 | 0.709 | 0.683 | 0.756 | 0.511 | 0.202 | 0.234 | 0.187 | 0.193 | 0.238 | 0.971 | 0.923 | 1 | 1.06 | 0.98 |
